Literature values, collected in US9683982B2, “Method for diagnosis and/or prognosis of cancers by analysis of the mechanical properties of tumor cells” (Universität Leipzig, priority 2010, dated 2017).

Tested on: cells of the cell line MCF7
Settings: addition of 100 nmol/l TPA for 18 h in culture

SMILES: CCCCCCCCCCCCCC(=O)O[C@@H]1[C@@H](C)[C@@]2(O)[C@@H](C=C(CO)C[C@]3(O)C(=O)C(C)=C[C@@H]23)[C@@H]2C(C)(C)[C@]12OC(C)=O [TPA, 12-O-tetradecanoylphorbol-13-acetate]
- invasive potential and metastasis-forming potential: significant increase
